Data on 1 substance can be found in patent publication US4981848A, “Alpha-adrenergic receptor antagonists” (SmithKline Beecham Corporation, priority 1989, dated 1991).

This test concerns spontaneously hypertensive rats. Briefly: antihypertensive activity in the spontaneously hypertensive rat model. The format is in vivo. The note with it: oral administration at 20 mg/kg. As to the method:
The antihypertensive activity of certain compounds of the present invention was determined using the spontaneously hypertensive rat model. The details of this in vivo test are found in Roesler, J. M., et al., J. Pharmacol. Exp. Ther., 236:1-7 (1986).

Take “N-[(7-Chloro-3,4,5,6-tetrahydro-4-methylthieno[4,3,2-ef][3]benzazepin-2-yl)methyl]2-methylpropanesulfonamide [Example 7]”: the arterial blood pressure entry is given as “dose related reduction in arterial blood pressure”.
